Experimental findings from patent US11980620B2, “Compounds and methods for treatment of Diamond Blackfan anemia” (THE CHILDREN'S MEDICAL CENTER CORPORATION, priority 2017, dated 2024) are described below.

The test system of test [1] is CB CD34+ RPS19sh cells. Briefly: Erythroid differentiation of CB CD34+ progenitors transduced with shRNAs for RPS19. The format is cell-based, human. The protocol:
(FIG. 8A) The distribution of 1440 compounds by Z-score in a proliferation-based screen of the Sigma LOPAC chemical library. DBA CD34-5F cells were plated in erythroid-promoting conditions in 384-well format. Erythroid proliferation was measured in the presence of 5 μM of each compound, and converted into Z-scores. The screen was carried out with 3 RPS19 DBA and 2 normal iPSC lines. (FIG. 88) Dose-dependent effect of SMER28 (in μM) on erythroid differentiation, shown as the absolute number of erythroid cells in each drug-treated condition normalized to vehicle (DMSO) control. Erythroid cells were analyzed on day 9 of differentiation using markers CD71 and GlyA. […] (FIG. 8C) Absolute number of erythroid cells (analyzed on day 9) in each drug-treated condition normalized to vehicle (DMSO) control (4 independent experiments). […]
(FIG. 12A) Erythroid differentiation of control and DBA CD34-5F cells treated with DMSO vehicle or SMER28 (10 μM) during the initial CD34^+ progenitor phase (day 0-4 of differentiation), or stage I of erythroid culture (day 4-9 of differentiation). Percent of erythroid cells after stage I of differentiation is indicated in top left for each condition, and quantitated in (FIG. 12B). […] GFP^+ RPS19^sh and GFP^− control cells were quantitated separately. […] Arrows indicate enucleated RBCs, which are quantitated by flow cytometry. […]

Test [2] has as its system CD34-5F progenitors with ATG5 knockdown. Briefly: Erythroid differentiation of CD34-5F cells transduced with shRNAs for ATG5. Type of test: cell-based, human. The note with it: SMER28 10 μM; p=0.005. The protocol:
(FIG. 13A) Induction of autophagy by SMER28 (40 μM) monitored by protein levels of p62, LC3-I, and LC3-II after 24 hours. Cells were also treated with 5-FU (100 nM) to induce autophagy, or inhibitor of transcription actinomycin D (ActD; 100 nM). (FIG. 13B) Induction of autophagy by SMER28 (40 μM) monitored by protein levels of p62, LC3-I, and LC3-II after 24 hours treatment with or without lysosomal blockade with bafilomycin A (200 nM for 4 hours). Untreated samples are shown at higher exposure, to capture dynamic changes in the LC3-II levels. Rapamycin (200 nM) is a positive control. LC3-II levels relative to GAPDH are quantitated on the right. (FIG. 13C) Erythroid differentiation of CD34-5F cells transduced with shRNAs for luciferase (LUC) or ATG5±SMER28. Representative flow plots and quantitation showing the number of erythroid cells induced by SMER28 (10 μM) normalized to DMSO. 2 control luciferase shRNAs and 2 ATG5 shRNAs are included (knockdown efficiency in hematopoietic cells of 58% and 50%, respectively), each with 2 independent lines; p=0.005, 3 independent experiments. (FIG. 13D) Atg5 deficiency causes anemia in zebrafish. […] Representative images (left), and quantitation (right) with embryos grouped by high, medium, and low levels of benzidine staining. […]

As for `C=CCNc1ncnc2ccc(Br)cc12` [SMER28, 6-Bromo-N-2-propenyl-4-quinazolinam], the “erythroid output of RPS19sh cells” value in test [1] (dose curve, highest activity at lower doses) is recorded as “robustly increased”. Besides, in test [1] (treatment of undifferentiated CD34+ RPS19sh cells), the erythroid output result was “sufficient to improve erythroid output”. Moreover, the “effect of SMER28 on erythroid differentiation after knockdown of ATG5” value in test [2] is “significantly reduced”.
